Molecules are shown by their SMILES.

Test [1] addresses T1, KCC2-S940A (Homo sapiens, UniProt Q9H2X9, S963A).
T1 construct: expressed in transfected cells; host or cells: HEK-293
T1 sequence (Q9H2X9 1-1116 isoform Q9H2X9-2 S940A): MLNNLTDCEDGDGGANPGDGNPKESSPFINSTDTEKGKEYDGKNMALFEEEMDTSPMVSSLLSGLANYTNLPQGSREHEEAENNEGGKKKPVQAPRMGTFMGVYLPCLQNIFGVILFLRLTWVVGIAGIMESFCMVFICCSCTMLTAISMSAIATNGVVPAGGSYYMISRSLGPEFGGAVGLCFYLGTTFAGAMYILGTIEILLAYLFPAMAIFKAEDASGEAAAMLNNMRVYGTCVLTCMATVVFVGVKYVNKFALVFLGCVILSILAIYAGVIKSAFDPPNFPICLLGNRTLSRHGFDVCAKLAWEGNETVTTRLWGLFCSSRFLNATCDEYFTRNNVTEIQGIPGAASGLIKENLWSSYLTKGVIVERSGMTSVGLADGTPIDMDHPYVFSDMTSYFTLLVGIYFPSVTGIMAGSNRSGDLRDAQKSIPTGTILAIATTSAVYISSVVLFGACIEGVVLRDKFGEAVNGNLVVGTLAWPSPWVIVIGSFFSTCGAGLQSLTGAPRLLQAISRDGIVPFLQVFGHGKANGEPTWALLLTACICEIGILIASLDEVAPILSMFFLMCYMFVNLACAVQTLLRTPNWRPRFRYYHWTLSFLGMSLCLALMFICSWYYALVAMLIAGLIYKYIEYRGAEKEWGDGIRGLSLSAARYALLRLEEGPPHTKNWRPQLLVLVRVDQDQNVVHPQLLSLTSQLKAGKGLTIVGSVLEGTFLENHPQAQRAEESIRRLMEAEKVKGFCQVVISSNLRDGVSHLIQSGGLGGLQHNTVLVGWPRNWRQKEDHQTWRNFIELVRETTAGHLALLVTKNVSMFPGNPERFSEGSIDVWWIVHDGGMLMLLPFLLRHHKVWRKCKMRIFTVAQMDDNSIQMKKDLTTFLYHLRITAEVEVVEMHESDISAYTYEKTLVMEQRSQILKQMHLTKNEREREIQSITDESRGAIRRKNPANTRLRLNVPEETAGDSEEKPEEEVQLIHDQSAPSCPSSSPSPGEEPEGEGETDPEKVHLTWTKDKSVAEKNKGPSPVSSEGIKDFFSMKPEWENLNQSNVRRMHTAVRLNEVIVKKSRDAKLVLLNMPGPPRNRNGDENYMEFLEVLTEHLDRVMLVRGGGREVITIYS
Put plainly: Tl+ flux assay, KCC2-S940A construct in HEK-293 cells. Type of test: cell-based. Here is the method:
FLIPR TI Flux assay. HEK-293 cells were washed with HBSS, and then incubated with loading buffer containing TI sensitive fluorescent dye (https://www.moleculardevices.com), 20 μM bumetanide 20 μM ouabain and 2.5 mM probenecid for 1 h at room temperature (RT) under control conditions or with drugs in the dark using a FlexStation 3 microplate reader (Molecular Devices) and imaged […] for 30 min. Stimulus buffer was added containing 5 mM K^+/0.5 mM Tl^+ and cells were imaged every 1.5 over a 190 second time course The initial rate Tl^+ uptake (Relative Fluorescence Units (RFU) per second) was determined following addition of the stimulus buffer as outlined previously (Conway et al., 2017, supra) (Lee et al., 2022, supra).
Several studies have shown that the activity and plasma membrane accumulation of KCC2 is potentiated via phosphorylation of S940, a process mediated by the activity of protein kinase C and protein phosphatase 1 (Lee et al, 2011, supra; Lee et al., J Biol Chem 282, 29777-29784 (2007); Moore et al., Proc. Natl. Acad. Sci. U.S.A 115, 10166-10171 (2018); Moore et al., Trends Neurosci. 40, 555-571 (2017); Silayeva et al., Proc. Natl. Acad. Sci. U.S.A. 112, 3523-3528 (2015)). […] Compared to KCC2, effects on KCC3, KCC4, and NKCC1 were only seen at concentrations more than 35-fold that of KCC2 (>100 μM) (FIG. 1G).

Test [2] has as its system panel of 144 protein kinases. Put plainly: Protein kinase panel (SelectScreen; Thermofisher). The test is classed as biochemical. The following applies: 144 protein kinases incl. PKC isoforms, OSR1, SPAK, WNK. As for the experimental part: Aliquots of HEK-293 cells expressing, KCC2 were exposed to 30 μM SSA, heated from 37-55° C. The remaining level of soluble native KCC2 at each temperature was measured by immunoblotting and normalized to the level seen at 37° C. which was given a value of 1. […] This panel included protein kinase C isoforms, OSR1, SPAK (STK39) and with-no-lysine kinases (WNK), all of which phosphorylate KCC2 on multiple residues to indirectly modify its activity (Kahle et al., 2013, supra; Smalley et al., 2020, supra).

The subject of test [3] is 18-20 Div hippocampal neurons. Put plainly: Gramicidin perforated patch-clamp, EGABA in hippocampal neurons. The test is classed as cell-based, Sprague Dawley. The following applies: 300 nM. As for the experimental part: Neuronal Cultures. Hippocampal neurons were prepared from Sprague Dawley E18 embryos and plated at 450,000 per dish and maintained at 37° C. in a humidified 5% CO2 incubator for 10-25 days before experimentation (Lee et al., Nat. Neurosci. 14, 736-743 (2011)).
At this developmental stage, GABAAR receptor activation leads to hyperpolarization, a phenomenon critically dependent upon KCC2 (Kontou et al., J Biol Chem, 100364 (2021)).
Neuronal Patch clamp assays. Neuronal cell culture recordings were performed in bath saline at 34° C. For gramicidin perforated-patch experiments, pipettes contained (in mM): 140 KCl and 10 HEPES, pH 7.4 KOH. For whole-cell experiments, pipettes contained (in mM): 115 K-meth-SO4, 30 KCl, 2 Mg-ATP, 4 Na-ATP, 0.4 Na-GTP, and 10 HEPES, pH 7.4 KOH. Bath saline contained the following (in mM): 140 NaCl, 2.5 KCl, 2.5 CaCl2, 2.5 MgCl2, 10 HEPES, and 11 glucose, pH 7.4 NaOH (Kontou et al., 2021, supra). All compound solutions were applied to cells using a three-barreled 700 μm pipe positioned just above the cell (Warner Instruments). […] All voltages from whole-cell experiments were corrected offline using a calculated liquid junction potential value (13.6 mV) in Clampex (Molecular Devices). For gramicidin perforated-patch experiments, intracellular Cl^− values were back-calculated using measured EGABA values and the Nernst equation: […]
In general terms: In patch-clamp work, channel activity is measured electrically.

Test [4] has as its system hippocampus. Put plainly: Neuronal cell death in the hippocampus, Compound A with diazepam. To be noted: mice, Compound A and diazepam vs diazepam alone. The test is classed as in vivo.

As to `C[C@@H]1CN(c2nc3c(c(Nc4ccc(C5CCCCC5)cc4)n2)COC3)CCO1` [Compound A, (R)—N-(4-cyclohexylphenyl)-2-(2-methylmorpholino)-5,7-dihydrofuro[3,4-d]pyrimidin-4-amine], the “activity of KCC2-S940A construct” value in test [1] is on record as “increased the activity”. In addition, in test [2], the “activity of kinase panel” value is listed as “did not modify the activity”. In addition, the “reduction in Cl−” value in test [3] (15 min, calculated from EGABA) was 2.2 ± 0.6 mM. Further, the “EGABA at 15 min” value in test [3] (from −75±3.1 at 0 min, bumetanide and TTX present) was −85.1±4.2 mV. Also, the “neuronal cell death in the hippocampus” value in test [4] was “significantly reduced”.

Values taken from US20250281499A1, “FUSED AMINO PYRIMIDINE COMPOUNDS FOR TREATMENT OF NEUROPATHIC AND NEURO-INFLAMMATORY PAIN” (Ovid Therapeutics Inc., priority 2024, published 2025).
